{"source": "patent US7345030B2", "about": "“Use of n-acetyl-d-aminoglycosamine in treatment of organ lesions related to toxicosis of drugs or chemicals” (priority 2003, dated 2008)", "key": {"[1]": {"test_system": "Kunming mice fed with methanol", "test": "Methanol poisoning test", "type": "in vivo", "details": "15 mice, i.p. 0.1 g/ml aqueous solution", "experimental": "1. Methanol Poisoning Test\n(§1) 30 Kunming mice were randomly divided into two groups, i.e., 15 mice in test group (I) and 15 mice in test group (II), and another 15 mice were used as control. Each mouse was fed with methanol in a dose of 0.2 ml/20 g bodyweight. […] The mice of the test group (I) were intra-peritoneally injected with an aqueous solution of N-acetyl-D-glucosamine having a concentration of 0.1 g/ml in a dose of 0.1 ml/20 g bodyweight, just after they were fed with methanol. […] The mice of the test group (II) were intra-peritoneally injected with an aqueous solution of N-acetyl-D-glucosamine having a concentration of 0.1 g/ml in a dose of […], just after they were fed with methanol. […] 2. Rogor Poisoning Test 30 Kunming mice were randomly divided into three groups, i.e., 10 mice in control group, 10 mice in test group (I) and 10 mice in test group (II). The mice were orally fed with 10000 times diluted rogor stock solution (commercially obtained from Chongqing Agriculture Chemicals Group, 500 ml/bottle, standard: GB15583-1995) in a dose of 0.5 ml per mouse for consecutive 3 days. […] The mice of the test groups were treated by intra-peritoneal injection of an aqueous solution of N-acetyl-D-glucosamine having a concentration of 5 g/100 ml in a dose of 0.2 ml for the test group (I) and a dose of 2 ml for the test group (II). […] 3. Lead Poisoning Test 30 Kunming mice were made as lead poisoning models by a method of feeding litharge. […] The mice of the test group (I) were treated by intra-peritoneal injection of N-acetyl-D-glucosamine in a dose of 0.2 ml×10% (weight/volume), and the mice of the test group (II) were treated by intra-peritoneal injection with N-acetyl-D-glucosamine in a dose of 2 ml×10% (weight/volume). The death rate of mice was separately 7/10 and 2/10 within 3 days, and the death rate of mice was 1/3 and 0/8 within the following 4 days. […] According to the above examples, N-acetyl-D-glucosamine can effectively eliminate toxic effects of at least toxicants such as metal ions, organophosphorus pesticides, methanol, etc. that have different action mechanisms."}, "[2]": {"test_system": "mice", "test": "Reproduction test", "type": "in vivo", "details": "mice fed 7 mg/kg for 3 generations"}, "[3]": {"test_system": "Proteus Mirabilis", "test": "Promoting wave test (bio-wave model)", "type": "cell-based", "details": "final concentration 0.5% in LB plate, 37° C., 9 hours, compared with control sample", "source_text": "1. Experimental Materials and Method:\n1.1 Sample: Pure Compound of Formula (I)\n1.2 Experimental Materials:\n• Strain: Proteus Mirabilis that meets the following biochemical reaction characteristics: dynamics (+), urease (+), lactose (−), glucose (+), H2S (−), phenylalanine deaminase (+). • Culture medium: modified LB culture medium (components: 1% tryptones, 0.5% yeast extract, 1% sodium chloride, 0.1% glucose, 0.002% TTC, and pH=7.2 to 7.4). 1.3 Experimental Method: • Control sample: the Proteus Mirabilis were inoculated at the center of LB plate, and incubated at 37° C. for 9 hours; • Test sample: the compound of formula (I) with a final concentration of 0.5% was added to the LB plate, then the Proteus Mirabilis were inoculated by the same method, and cultured at 37° C. for 9 hours. 2. […] It is anticipated that this wave-promoting function could treat organ lesions caused by toxicants and drugs."}, "[4]": {"test": "Long-period toxicity test", "type": "in vivo", "details": "maximum dosage up to 1 g/kg, treatment and observation for four weeks", "source_text": "(§2) The toxicological test of the compound of formula (I) includes: • 1. Acute toxicity test: including tests of oral administration, intravenous injection administration, and maximum limit amount for administration; • 2. Ames test; • 3. Micronucleus test of mouse bone marrow cell; • 4. Abnormality test of mouse sperm; • 5. Aberration test of mouse testis chromosome; • 6. Chronic lethal test; • 7. Sub-chronic toxicity (feed for 90 days) test; • 8. Traditional deformity-inducing test."}, "[5]": {"test_system": "Kunming mice fed with rogor", "test": "Rogor poisoning test", "type": "in vivo", "details": "10 mice, i.p. 5 g/100 ml aqueous solution", "experimental": "30 Kunming mice were randomly divided into two groups, i.e., 15 mice in test group (I) and 15 mice in test group (II), and another 15 mice were used as control. Each mouse was fed with methanol in a dose of 0.2 ml/20 g bodyweight. […] The mice of the test group (I) were intra-peritoneally injected with an aqueous solution of N-acetyl-D-glucosamine having a concentration of 0.1 g/ml in a dose of 0.1 ml/20 g bodyweight, just after they were fed with methanol. […] The mice of the test group (II) were intra-peritoneally injected with an aqueous solution of N-acetyl-D-glucosamine having a concentration of 0.1 g/ml in a dose of […], just after they were fed with methanol. […] 2. Rogor Poisoning Test 30 Kunming mice were randomly divided into three groups, i.e., 10 mice in control group, 10 mice in test group (I) and 10 mice in test group (II). The mice were orally fed with 10000 times diluted rogor stock solution (commercially obtained from Chongqing Agriculture Chemicals Group, 500 ml/bottle, standard: GB15583-1995) in a dose of 0.5 ml per mouse for consecutive 3 days. […] The mice of the test groups were treated by intra-peritoneal injection of an aqueous solution of N-acetyl-D-glucosamine having a concentration of 5 g/100 ml in a dose of 0.2 ml for the test group (I) and a dose of 2 ml for the test group (II). […] 3. […]"}, "[6]": {"test": "Acute toxicity test", "type": "in vivo", "source_text": "as §2"}, "[7]": {"test_system": "Kunming mice lead poisoning models (litharge)", "test": "Lead poisoning test", "type": "in vivo", "experimental": "as §1"}, "[8]": {"details": "test group (I), 0.1 ml/20 g bodyweight"}, "[9]": {"details": "test group (II), 2 ml/20 g bodyweight"}, "[10]": {"details": "test group (I), i.p. 0.2 ml×10% (weight/volume)"}, "[11]": {"details": "test group (II), i.p. 2 ml×10% (weight/volume)"}}}
{"smiles": "CC(=O)N[C@@H]1[C@@H](O)[C@H](O)[C@@H](CO)O[C@H]1O", "note": "[compound of formula (I), N-acetyl-D-glucosamine]", "values": [{"measurement": "mice sequentially died", "setting": "[1]; [8]", "value": 5, "unit": "mice"}, {"measurement": "mice with obvious psychiatric symptoms", "setting": "[1]; [8]", "value": 2, "unit": "mice"}, {"measurement": "mice blind after 2 hours", "setting": "[1]; test group (I), 0.1 ml/20 g bodyweight, just after methanol 0.2 ml/20 g", "value": 8, "unit": "mice"}, {"measurement": "blind mice", "setting": "[1]; [9]", "value": "no mouse was blind"}, {"measurement": "mice died within 12 hours", "setting": "[1]; [9]", "value": 2, "unit": "mice"}, {"measurement": "mice with delirium and myasthenia of limbs", "setting": "[1]; [9]", "value": 4, "unit": "mice"}, {"measurement": "influence on pregnancy, birth, nurse and growth of baby mice", "setting": "[2]", "value": "no influence"}, {"measurement": "wave pattern of the colony (bio-wave promoting function)", "setting": "[3]", "value": "many fine waves on each ring"}, {"measurement": "intoxication reaction in long-period toxicity test", "setting": "[4]", "value": "no intoxication reaction"}, {"measurement": "mice died", "setting": "[5]; test group (I), 0.2 ml", "value": 4, "unit": "mice"}, {"measurement": "mice died", "setting": "[5]; test group (II), 2 ml", "value": 1, "unit": "mouse"}, {"measurement": "dosage at which the acute toxicosis reaction had not appeared", "setting": "[6]", "value": "more than 2 g/kg"}, {"measurement": "death rate within 3 days", "setting": "[7]; [10]", "value": "7/10"}, {"measurement": "death rate within the following 4 days", "setting": "[7]; [10]", "value": "1/3"}, {"measurement": "death rate within 3 days", "setting": "[7]; [11]", "value": "2/10"}, {"measurement": "death rate within the following 4 days", "setting": "[7]; [11]", "value": "0/8"}]}
